According to patent publication US6620820B2, “Inhibitors of bone reabsorption and antagonists of vitronectin receptors” (Hoechst Aktiengesellschaft, priority 1996, dated 2003):

Key:
[1] = biological target: T1, human vitronectin receptor (VnR) αVβ3 (Homo sapiens, UniProt P05106+P06756); test: Inhibition of the binding of Kistrin to human vitronectin receptor (VnR) αVβ3: ELISA test (Kistrin/VnR); conditions: plates coated with Kistrin, test method 2
T1 construct: Human vitronectin receptor is isolated from the human placenta using the method of Pytela et al; from tissue; host or cells: human placenta (alternatively 293 cells cotransfected with αV and β3 DNA)
Description: Nunc Maxisorb 96-well microtiter plates are coated, at 4° C. overnight, with a solution of human vitronectin (0.002 mg/ml, 0.05 ml/well) in PBS (phosphate-buffered sodium chloride solution). The plates are washed twice with PBS/0.05% Tween 20 and blocked by incubating them (for 60 min) with bovine serum albumin (BSA, 0.5%, RIA grade or better) in tris-HCl (50 mM), NaCl (100 mM), MgCl2 (1 mM), CaCl2 (1 mM), MnCl2 (1 mM), pH 7. Solutions of known inhibitors and of the test substances, in concentrations of 2×10^−12−2×10^−6 mol/l, are prepared in assay buffer [BSA (0.5%, RIA grade or better) in tris-HCl (50 mM/l), NaCl (100 mM), MgCl2 (1 mM), CaCl2 (1 mM), MnCl2 (1 mM), pH 7]. The blocked plates are emptied and in each case 0.025 ml of this solution, which contains a defined concentration (from 2×10^−12 to 2×10^−6) of either a known inhibitor or a test substance, is added to each well. 0.025 ml of a solution of the vitronectin receptor in the test buffer (0.03 mg/ml) is pipetted into each well of the plate and the plate is then incubated at room temperature on a shaker for 60-180 min. In the meantime, a solution (6 ml/plate) of a murine monoclonal antibody which is specific for the β3 subunit of the vitronectin receptor is prepared in the assay buffer (0.0015 mg/ml). A second rabbit antibody, which represents an anti-mouse Fc HRP antibody conjugate, is added to this solution (0.001 ml of stock solution/6 ml of the murine mono-clonal anti-β3 antibody solution) and this mixture of the murine anti-β3 antibody and the rabbit anti-mouse Fc HRP antibody conjugate is allowed to incubate while the receptor/inhibitor incubation is in progress. The test plates are washed 4 times with PBS solution containing 0.05% Tween-20 and 0.05 ml of the antibody mixture is in each case pipetted into each well of the plate, which is then incubated for 60-180 min. The plate is washed 4 times with PBS/0.05% Tween-20 and then developed with 0.05 ml/well of a PBS solution which contains 0.67 mg/ml o-phenylenediamine and 0.012% H2O2. Alternatively, o-phenylenediamine can be used in a buffer (pH 5) which contains Na3PO4 (50 mM) and citric acid (0.22 mM). The color development is stopped with 1N H2SO4 (0.05 ml/well). The absorption of each well is measured at 492-405 nm and the data are evaluated using standard methods.
Inhibition of the binding of Kistrin to human vitronectin receptor (VnR) αVβ3: ELISA test
(In the listing of the test results, test method 2 is abbreviated to Kistrin/VnR)
1. Purification of Kistrin
Kistrin is purified using the methods of Dennis et al., as described in Proc. Natl. Acad. Sci. USA 1989, 87, 2471-2475 and PROTEINS: Structure, Function and Genetics 1993, 15, 312-321.
2. Purification of human vitronectin receptor (αVβ3) see test method 1.
3. Monoclonal antibodies see test method 1.
The ability of substances to inhibit the binding of Kistrin to the vitronectin receptor can be elucidated using an ELISA test. For this purpose, Nunc 96-well microtiter plates are coated with a solution of Kistrin (0.002 mg/ml) in accordance with the method of Dennis et al., as described in PROTEINS: Structure, Function and Genetics 1993, 15, 312-321. The subsequent experimental implementation of the ELISA test is as described in test method1, item 4.

[2] = biological target: T1, human vitronectin receptor (VnR) αVβ3; test: Inhibition of the binding of human vitronectin (Vn) to human vitronectin receptor (VnR) αVβ3: ELISA test (Vn/VnR); conditions: plates coated with human vitronectin, test method 1
Excerpt: Inhibition of the binding of human vitronectin (Vn) to human vitronectin receptor (VnR) αVβ3: ELISA-Test.
(In the listing of the test results, test method 1 is abbreviated to Vn/VnR)
1. Purification of human vitronectin
Human vitronectin is isolated from human plasma and purified by affinity chromatography using the method of Yatohyo et al., Cell Structure and Function, 1988, 23, 281-292.
2. Purification of human vitronectin receptor (αVβ3)
Human vitronectin receptor is isolated from the human placenta using the method of Pytela et al., Methods Enzymol. 1987, 144, 475. Human vitronectin receptor αVβ3 can also be isolated from some cell lines (for example from 293 cells, a human embryonic kidney cell line) which are cotransfected with DNA sequences for the two subunits, αV and β3, of the vitronectin receptor. The subunits are extracted with octylglycoside and subsequently chromatographed on concanavalin A, heparin-Sepharose and S-300. […]
Nunc Maxisorb 96-well microtiter plates are coated, at 4° C. overnight, with a solution of human vitronectin (0.002 mg/ml, 0.05 ml/well) in PBS (phosphate-buffered sodium chloride solution). […] The absorption of each well is measured at 492-405 nm and the data are evaluated using standard methods.

T1 sequence (P06756 31-889 limits assumed): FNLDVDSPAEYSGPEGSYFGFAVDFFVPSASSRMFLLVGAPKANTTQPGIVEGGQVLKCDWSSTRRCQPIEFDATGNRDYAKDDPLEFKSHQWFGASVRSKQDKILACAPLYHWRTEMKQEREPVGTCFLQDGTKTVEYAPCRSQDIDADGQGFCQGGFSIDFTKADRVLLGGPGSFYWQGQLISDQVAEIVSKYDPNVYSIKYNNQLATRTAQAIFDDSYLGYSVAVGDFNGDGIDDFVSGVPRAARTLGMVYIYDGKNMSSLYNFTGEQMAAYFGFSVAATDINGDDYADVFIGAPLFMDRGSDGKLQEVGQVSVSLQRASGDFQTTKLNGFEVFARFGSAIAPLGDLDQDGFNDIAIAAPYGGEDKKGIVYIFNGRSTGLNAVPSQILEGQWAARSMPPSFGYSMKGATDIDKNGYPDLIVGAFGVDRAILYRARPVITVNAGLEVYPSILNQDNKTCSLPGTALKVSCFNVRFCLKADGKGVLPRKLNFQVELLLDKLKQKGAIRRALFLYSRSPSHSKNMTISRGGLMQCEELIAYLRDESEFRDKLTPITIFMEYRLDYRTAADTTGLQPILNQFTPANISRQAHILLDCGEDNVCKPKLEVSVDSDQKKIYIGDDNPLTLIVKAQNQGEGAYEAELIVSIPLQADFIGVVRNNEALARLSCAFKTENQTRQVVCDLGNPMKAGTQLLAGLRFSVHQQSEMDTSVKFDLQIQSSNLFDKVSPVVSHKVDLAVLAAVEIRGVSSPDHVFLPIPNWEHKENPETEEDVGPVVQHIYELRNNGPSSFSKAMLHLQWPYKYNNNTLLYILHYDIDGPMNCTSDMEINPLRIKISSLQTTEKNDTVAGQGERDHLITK
T1 sequence (P06756 891-1048 partner limits assumed): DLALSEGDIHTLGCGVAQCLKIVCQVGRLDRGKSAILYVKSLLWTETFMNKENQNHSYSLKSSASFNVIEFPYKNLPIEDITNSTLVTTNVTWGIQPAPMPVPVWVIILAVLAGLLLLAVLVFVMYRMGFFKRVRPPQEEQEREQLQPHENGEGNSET
T1 sequence (P05106 27-788): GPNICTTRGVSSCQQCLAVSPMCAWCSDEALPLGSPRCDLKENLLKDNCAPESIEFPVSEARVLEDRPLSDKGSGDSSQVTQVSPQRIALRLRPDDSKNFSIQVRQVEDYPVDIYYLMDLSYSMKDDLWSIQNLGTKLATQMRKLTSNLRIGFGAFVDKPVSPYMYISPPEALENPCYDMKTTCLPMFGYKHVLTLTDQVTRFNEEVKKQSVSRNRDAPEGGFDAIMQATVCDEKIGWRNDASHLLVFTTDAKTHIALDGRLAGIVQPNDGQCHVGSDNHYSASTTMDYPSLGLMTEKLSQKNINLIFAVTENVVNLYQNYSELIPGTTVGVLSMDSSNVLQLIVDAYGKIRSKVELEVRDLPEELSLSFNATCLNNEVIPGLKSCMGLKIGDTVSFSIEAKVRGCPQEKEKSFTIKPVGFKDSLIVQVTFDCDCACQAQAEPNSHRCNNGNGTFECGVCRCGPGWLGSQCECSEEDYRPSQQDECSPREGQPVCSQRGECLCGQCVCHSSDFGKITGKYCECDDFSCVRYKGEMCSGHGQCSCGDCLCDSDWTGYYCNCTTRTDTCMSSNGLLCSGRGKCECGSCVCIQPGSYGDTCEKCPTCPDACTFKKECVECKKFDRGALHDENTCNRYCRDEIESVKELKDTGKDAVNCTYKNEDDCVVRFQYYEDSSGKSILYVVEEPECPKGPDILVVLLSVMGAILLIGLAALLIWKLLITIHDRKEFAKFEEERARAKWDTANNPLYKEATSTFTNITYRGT

Row | Structure (SMILES) | IC50 [1] | IC50 [2]
1 | O=C(CN1C(=O)N[C@@H](CCCNc2nc3ccccc3[nH]2)C1=O)NC[C@H](NC(=O)OCc1ccccc1)C(=O)O [Example 5, (2S)-Benzyloxycarbonylamino-3-[((4S)-(3-(benzimidazolyl-2-amino)-propyl)-2,5-dioxoimidazolidin-1-yl)acetylamino]propionic Acid] | 40 nM | 
2 | O=C(CN1C(=O)N[C@@H](CCCNC2=NCCN2)C1=O)NC[C@H](NC(=O)OCc1ccccc1)C(=O)O [Example 1, (2S)-Benzoylcarbonylamino-3-[2-((4S)-(3-(4,5dihydro-1H-imidazol-2-ylamino)propyl)-2,5-dioxoimidazolidin-1-yl)acetylamino]propionic Acid] | 20 nM | 8 nM
3 | O=C(CN1C(=O)N[C@@H](CC(=O)NNC2=NCCCN2)C1=O)NC[C@H](NC(=O)OCc1ccccc1)C(=O)O [Example 8, (2S)-Benzyloxycarbonylamino-3-[2-(2,5-dioxo-(4S)-(N′-(1,4,5,6-tetrahydro-pyrimidin-2-yl)hydrazinocarbonylmethyl)imidazolidin-1-yl)acetylamino]propionic Acid] | 130 nM | 
4 | O=C(CN1C(=O)N[C@@H](CCCNc2ncccn2)C1=O)NC[C@H](NC(=O)OCc1ccccc1)C(=O)O [Example 4, (2S)-Benzyloxycarbonylamino-3-[((4S)-(3-(2-pyrimidylamino)propyl)-2,5-dioxoimidazolidin-1-yl)acetylamino]propionic Acid] | 1660 nM | 
5 | N=C(N)NC(=O)CC[C@@H]1NC(=O)N(CC(=O)NC[C@H](NC(=O)OCc2ccccc2)C(=O)O)C1=O [Example 19, (2S)-Benzyloxycarbonylamino-3-[2-((4S)-(3-guanidino-3-oxopropyl) -2,5-dioxoimidazolidin-1-yl)acetylamino]propionic Acid] | 20 nM | 
6 | N=C(N)NC(=O)NC[C@@H]1NC(=O)N(CC(=O)NC[C@H](NC(=O)OCc2ccccc2)C(=O)O)C1=O [Example 3, (2S)-Benzyloxycarbonylamino-3-[((4S)-(guanidinoacylaminomethyl)-2,5-dioxoimidazolidin-1-yl)acetylamino]propionic Acid] | 360 nM | 
7 | O=C(CN1C(=O)N[C@@H](CCc2nc3ccccc3[nH]2)C1=O)NC[C@H](NC(=O)OCc1ccccc1)C(=O)O [Example 18] | 810 nM | 
8 | O=C(CN1C(=O)N[C@@H](CC(=O)NNC2=NCCN2)C1=O)NC[C@H](NC(=O)OCc1ccccc1)C(=O)O [Example 7, (2S)-Benzyloxycarbonylamino-3-[2-((4S)-(N′-(4,5-dihydro-1H-imidazol-2-yl)-hydrazinocarbonylmethyl]-2,5-dioxoimidazolidin-1-yl)acetylamino]propionic Acid] | 580 nM | 
